Literature values, collected in US5854010A, “Bioassay for detecting 2,3,7,8-tetrachlorodibenzo-para-dioxin and TCDD-like compounds and novel recombinant cell line useful therefor” (priority 1997, dated 1998).

Test system: Mouse T13 cells (recombinant Hepa1), alkaline phosphatase
Settings: Table 3 comparison, El-Fouly et al.; read-out: ED50 (the source's name); cited from earlier work

Q: With `Clc1cc2c(cc1Cl)Oc1cc(Cl)c(Cl)cc1O2` [TCDD, 2,3,7,8-tetrachlorodibenzo-para-dioxin] as the molecule, how does the EC50 read?
A: 0.35 nM
